# According to patent publication US10166270B2, “Composition and method for affecting cytokines and NF-κB” (priority 2004, dated 2019):
# Columns and labels:
# [1] = test system: carrageenan-induced paw edema; experiment: Carrageenan-induced paw edema; assay type: in vivo, rat
# Source text: The carrageenan-induced paw edema assay was used as an in vivo indicator of the anti-inflammatory effects of the phyto-percolate. Carrageenan induces local inflammation and edema when injected into the paw pad of a rat (Di Rosa et al., 1971). The development of paw edema is believed to be biphasic (Vinegar et al., 1969). The initial phase is attributable to the local release of histamine and serotonin (Crunkhon et al., 1971) and the second phase is caused by prostaglandin release as a result of COX activation. […] Each treatment group is compared to control.
# human COX-2 = biological target: T1, human COX-2 (Homo sapiens, UniProt P35354); experiment: in vitro COX-2 inhibition (arachidonic acid to PGE2, EIA); assay type: biochemical; conditions: read-out: % COX-2 Inhibition (Individual assay values)
# T1 construct: host or cells: Sf21 insect cells
# T1 sequence (P35354 18-604): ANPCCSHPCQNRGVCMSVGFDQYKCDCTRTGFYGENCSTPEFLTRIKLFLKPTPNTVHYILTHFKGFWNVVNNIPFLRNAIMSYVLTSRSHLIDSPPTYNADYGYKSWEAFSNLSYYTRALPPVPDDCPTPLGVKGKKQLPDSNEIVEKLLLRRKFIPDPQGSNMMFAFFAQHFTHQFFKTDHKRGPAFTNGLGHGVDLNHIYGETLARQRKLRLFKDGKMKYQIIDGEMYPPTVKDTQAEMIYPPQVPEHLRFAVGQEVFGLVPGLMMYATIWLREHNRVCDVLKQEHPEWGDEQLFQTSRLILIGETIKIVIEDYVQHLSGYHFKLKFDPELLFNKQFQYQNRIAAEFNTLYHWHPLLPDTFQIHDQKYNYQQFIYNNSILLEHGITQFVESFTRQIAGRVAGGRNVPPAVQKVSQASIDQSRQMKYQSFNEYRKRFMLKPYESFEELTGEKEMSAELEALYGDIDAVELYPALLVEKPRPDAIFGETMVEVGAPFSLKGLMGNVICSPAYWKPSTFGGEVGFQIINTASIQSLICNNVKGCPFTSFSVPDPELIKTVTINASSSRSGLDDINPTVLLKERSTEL
# Description: Three separate preparations of the phyto-percolate were screened, using an in vitro assay, for COX-2 inhibition. Riendeau et al., Can. J. Physiol. […] Briefly, this assay measured to conversion of 0.3 μM arachidonic acid to PGE2 by human recombinant insect Sf21 cells expression human COX-2. The incubation buffer contained 100 mM Tris-HCl (pH 7.7), 1 mM glutathione, 1 μM hematin, and 500 μM phenol. PGE2 was quantified using an enzyme-linked immunoassay (EIA).
# Sample 1 was a sample of diluted phyto-percolate concentrated approximately 100-fold by drying under N2. Sample 2 was prepared by drying a 4800 μl sample of diluted phyto-percolate under N2 and reconstituting it in 96 μl of ddH2O just prior to assay. Sample 3 was prepared by lyophilizing a 4800 μl sample of diluted phyto-percolate and reconstituting it in 96 μl of ddH2O just prior to assay. The concentrations of phyto-percolate used, 100×, 10×, and IX, refer to 10 μl, 1 μl, and 0.1 μl of sample, respectively, in a final assay volume of 100 μl. […] Each sample was assayed in at least three concentrations and the assays were performed in duplicate.
# TNF-α = experiment: ELISA of cytokine secretion by PBMC: TNF-α; assay type: cell-based, human; conditions: PMA added to cultured PBMC
# Description: (§1) According to this exemplary embodiment, phyto-percolate and the flow-through/F4 were tested as they appeared in their original concentrations right off the columns, only diluted 1:20 and 1:100 as described herein. The culture of peripheral blood mononuclear cells (“PBMC”) is prepared with two vials of frozen PBMCs that were obtained from normal healthy human subjects by a commercial vendor and were added to 2×10 ml medium and centrifuged. PBMCs were resuspended and cultured in RPMI1640/5% FBS for 24 h. (1 vial of frozen cells in 11 ml medium).
# (§2) Treatment agents for this exemplary method comprise three agents: unseparated phyto-percolate (‘PAZ’), fraction 3 (‘F3’), fraction 4 (‘F4’). Treatment concentration for each was 1:20 & 1:100. […]
# (§3) According to this exemplary embodiment, seeding, treatment, and detection is accomplished by the following steps. Two dishes of PBMCs were combined and the small amount of PBMCs was stained with 0.4% Trypan blue and the cell number of PBMCs was counted using known techniques.
# (§4) In this embodiment, an enzyme linked immunosorbent assay (“ELISA”) analysis of inflammatory cytokine secretion, a protocol provided in a commercial kit for the parallel quantification of the production of human cytokines was employed. […]
# IFN-γ = experiment: ELISA of cytokine secretion by PBMC: IFN-γ; assay type: cell-based, human; conditions: PMA added to cultured PBMC
# Description: as §1, §2, §3, §4
# IL-17A = experiment: ELISA of cytokine secretion by PBMC: IL-17A; assay type: cell-based, human; conditions: PMA added to cultured PBMC
# Description: as §1, §2, §3, §4
# IL-2 = experiment: ELISA of cytokine secretion by PBMC: IL-2; assay type: cell-based, human; conditions: PMA added to cultured PBMC (with ionomycin)
# Description: as §1, §2, §3, §4
# GM-CSF = experiment: ELISA of cytokine secretion by PBMC: GM-CSF; assay type: cell-based, human; conditions: PMA added to cultured PBMC
# Description: as §1, §2, §3, §4
# NF-κB = experiment: EMSA of DNA-binding activity of NF-κB in cultured PBMC; assay type: cell-based, human; conditions: TNF-α (50 ng/ml) added one hour before harvesting
# Description: as §1
# Treatment agents for this exemplary method comprise three agents: unseparated phyto-percolate (‘PAZ’), fraction 3 (‘F3’), fraction 4 (‘F4’). Treatment concentration for each was 1:20 & 1:100. An exemplary sample preparation method for each agent by dilution is as follows: First, a 1:10 dilution is prepared by combining 0.7 ml agent (either PAZ, F3 or F4)+6.3 ml RPMI1640/5% FBS to obtain a total volume of 7 ml of a 1:10 solution. […]
# Analysis of the effect of phyto-percolate or fractions isolated therefrom on the DNA-binding activity of NF-κB in the nuclear protein fractions of the cultured PBMC was determined as follows in this exemplary embodiment: approximately 18.26 mL of suspended PBMC were added to approximately 18 mL of culture medium and 2 mL of this cell suspension (2,718,000 cells in 2 mL) were seeded into each 60 mm culture dish. […]
# [2] = 0 hours, oral dose 30 min before carrageenan, n=6
Molecule,"paw volume, % change from control ([1]; 0 hours)","Mean paw volume ± SD [1, 2]",Mean paw volume ± SD ([1]; 2 hours),"paw volume, % change from control ([1]; 2 hours)",Mean paw volume ± SD ([1]; 4 hours),"paw volume, % change from control ([1]; 4 hours)",Mean paw volume ± SD ([1]; 6 hours),"paw volume, % change from control ([1]; 6 hours)",Mean paw volume ± SD ([1]; 8 hours),"paw volume, % change from control ([1]; 8 hours)",Mean paw volume ± SD ([1]; 20 hours),"paw volume, % change from control ([1]; 20 hours)",also measured
"COc1ccc2c(c1)c(CC(=O)O)c(C)n2C(=O)c1ccc(Cl)cc1 [Indomethacin, indomethacin]",(1%),1.25 ± 0.05 mL,2.25 ± 0.23 mL,(7%),2.18 ± 0.22 mL,(1%),2.00 ± 0.22 mL,(−12%),1.83 ± 0.23 mL,(−22%),1.37 ± 0.10 mL,(−38%),–
CS(=O)(=O)c1ccc(C2=C(c3ccccc3)C(=O)OC2)cc1 [rofecoxib],–,–,–,–,–,–,–,–,–,–,–,–,inhibition at 0.01 µM (human COX-2): 11%; inhibition at 0.03 µM (human COX-2): 16%; inhibition at 0.1 µM (human COX-2): 33%; inhibition at 0.3 µM (human COX-2): 55%; inhibition at 1 µM (human COX-2): 88%
"CCCCCCCCCCCCCC(=O)O[C@@H]1[C@@H](C)[C@@]2(O)[C@@H](C=C(CO)C[C@]3(O)C(=O)C(C)=C[C@@H]23)[C@@H]2C(C)(C)[C@]12OC(C)=O [PMA, phorbol myristate acetate]",–,–,–,–,–,–,–,–,–,–,–,–,"secretion of TNF-α (TNF-α): approximately 50 pg/100,000 cells; secretion of IFN-γ (IFN-γ): approximately 70 pg/100,000 cells; secretion of IL-17A (IL-17A): approximately 3 pg/100,000 cells; secretion of IL-2 (IL-2): approximately 125 pg/100,000 cells; secretion of GM-CSF (GM-CSF): approximately 50 pg/100,000 cells"
TNF-α,–,–,–,–,–,–,–,–,–,–,–,–,"DNA-binding activity of NF-κB, relative level (control = 1.0) (NF-κB): ~2.0"
"CC(=O)Oc1ccccc1C(=O)O [Aspirin, aspirin]",(1%),1.25 ± 0.08 mL,2.22 ± 0.28 mL,(4%),2.07 ± 0.23 mL,(−10%),1.92 ± 0.18 mL,(−20%),1.80 ± 0.18 mL,(−25%),1.42 ± 0.16 mL,(−23%),–
